{"source": "EPA's ToxValDB 9.5 (doi:10.2903/j.efsa.2009.1354)", "key": {"Anas platyrhynchos [1]": {"test_system": "Anas platyrhynchos", "test": "LC10; higher = less toxic", "details": "short-term; duration: 14 days; oral; feed; mortality"}, "Anas platyrhynchos [2]": {"test_system": "Anas platyrhynchos", "details": "for LD50: acute, unspecified; for LD50 / LC50: oral, mortality; for LC50: short-term, feed"}, "Apis mellifera": {"test_system": "Apis mellifera", "details": "acute; duration: 48 hours; dermal; mortality"}, "Daphnia magna": {"test_system": "Daphnia magna", "details": "chronic/long-term; duration: 21 days; reproduction"}, "Aphidius rhopalosiphi": {"test_system": "Aphidius rhopalosiphi", "details": "acute; duration: 2 days; mortality"}, "Oncorhynchus mykiss": {"test_system": "Oncorhynchus mykiss", "details": "chronic/long-term; duration: 14 days; growth"}, "Phasianus sp.": {"test_system": "Phasianus sp.", "details": "oral, mortality; for LD50: acute, unspecified"}, "Lepomis macrochirus": {"test_system": "Lepomis macrochirus", "details": "acute; duration: 96 hours; mortality"}, "Hypoaspis aculeifer": {"test_system": "Hypoaspis aculeifer", "details": "chronic/long-term; duration: 16 days; reproduction"}, "Colinus virginianus": {"test_system": "Colinus virginianus", "details": "for LC50 / LD50: acute, oral, mortality; for LC50: diet"}, "Coturnix japonica": {"test_system": "Coturnix japonica", "details": "acute, oral, mortality"}, "Folsomia candida": {"test_system": "Folsomia candida", "details": "chronic/long-term; duration: 28 days"}, "Oryctolagus sp.": {"test_system": "Oryctolagus sp.", "details": "acute; oral; mortality"}, "Cucumis sativus": {"test_system": "Cucumis sativus", "details": "acute; duration: 21 days; biomass"}}, "note": "Where “and” joins values, the source holds several entries; their conditions need not be identical. Equal values may be shown once.", "data": [{"smiles": "CCCCN(CCCC)SN(C)C(=O)Oc1cccc2c1OC(C)(C)C2", "note": "[Carbosulfan]", "values": [{"measurement": "LC10", "setting": "Anas platyrhynchos [1]", "value": 0.64, "unit": "mg/kg-day"}, {"measurement": "LD50", "setting": "Anas platyrhynchos [2]; F", "value": 0.86, "unit": "mg/kg-day"}, {"measurement": "LD50", "setting": "Anas platyrhynchos [2]; M", "value": 0.71, "unit": "mg/kg-day"}, {"measurement": "NOEL", "setting": "Anas platyrhynchos [2]; reproductive", "value": 2.5, "unit": "mg/kg-day"}, {"measurement": "LC50", "setting": "Anas platyrhynchos [2]; duration: 5 days", "value": "10 mg/kg-day and 17 mg/kg-day"}, {"measurement": "LC50", "setting": "Anas platyrhynchos [2]; duration: 14 days", "value": 1.6, "unit": "mg/kg-day"}, {"measurement": "LC50", "setting": "Anas platyrhynchos [2]", "value": 3.99, "unit": "mg/kg-day"}, {"measurement": "LD50", "setting": "Apis mellifera", "value": 0.18, "unit": "µg/piece"}, {"measurement": "NOEC", "setting": "Daphnia magna", "value": 0.0032, "unit": "mg/L"}, {"measurement": "LEL", "setting": "Aphidius rhopalosiphi", "value": 120, "unit": "g/ha"}, {"measurement": "NOEC", "setting": "Oncorhynchus mykiss", "value": 0.004, "unit": "mg/L"}, {"measurement": "LD50", "setting": "Phasianus sp.; F", "value": 6.2, "unit": "mg/kg-day"}, {"measurement": "LD50", "setting": "Phasianus sp.; M", "value": 4, "unit": "mg/kg-day"}, {"measurement": "LD50", "setting": "Phasianus sp.", "value": 20, "unit": "mg/kg-day"}, {"measurement": "LC50", "setting": "Phasianus sp.; short-term, feed", "value": 567, "unit": "mg/kg-day"}, {"measurement": "LC50", "setting": "Lepomis macrochirus", "value": 0.015, "unit": "µg/mL"}, {"measurement": "NOAEL", "setting": "Rattus norvegicus; acute, clinical chemistry", "value": 0.5, "unit": "mg/kg-day"}, {"measurement": "LD50", "setting": "Rattus norvegicus; acute, oral, mortality", "value": "< 5.6", "unit": "mg/kg-day"}, {"measurement": "NOAEL", "setting": "Rattus norvegicus; chronic", "value": 0.1, "unit": "mg/kg-day"}, {"measurement": "NOAEL", "setting": "Rattus norvegicus; reproduction developmental, reproduction", "value": 1.2, "unit": "mg/kg-day"}, {"measurement": "NOEC", "setting": "Hypoaspis aculeifer", "value": 20, "unit": "mg/kg"}, {"measurement": "LC50", "setting": "Colinus virginianus; duration: 5 days", "value": 114, "unit": "mg/kg-day"}, {"measurement": "LC50", "setting": "Colinus virginianus; duration: 7 days", "value": 20.8, "unit": "mg/kg-day"}, {"measurement": "LC50", "setting": "Colinus virginianus; duration: 14 days", "value": 15.8, "unit": "mg/kg-day"}, {"measurement": "LD50", "setting": "Colinus virginianus; M/F", "value": 8, "unit": "mg/kg-day"}, {"measurement": "LC50", "setting": "Colinus virginianus", "value": 239, "unit": "mg/kg-day"}, {"measurement": "LD50", "setting": "Colinus virginianus", "value": 82, "unit": "mg/kg-day"}, {"measurement": "NOEL", "setting": "Colinus virginianus; reproduction developmental", "value": 10.8, "unit": "mg/kg-day"}, {"measurement": "LD50", "setting": "Coturnix japonica; F", "value": 3.5, "unit": "mg/kg-day"}, {"measurement": "LD50", "setting": "Coturnix japonica; M", "value": 4.9, "unit": "mg/kg-day"}, {"measurement": "NOEC", "setting": "Folsomia candida", "value": 0.3, "unit": "mg/kg"}, {"measurement": "LD50", "setting": "Oryctolagus sp.", "value": 42.7, "unit": "mg/kg-day"}, {"measurement": "LEL", "setting": "Cucumis sativus", "value": 1500, "unit": "g/ha"}]}]}
